Results published in US9409866B2, “Pyridine-2-amides useful as CB2 agonists” (Hoffmann-La Roche Inc., priority 2012, dated 2016).
pEC50: −log10 of the molar value.

Legend:
human CB2 receptors = human CB2 receptors (Homo sapiens (Human), UniProt P34972); assay: functional cAMP assay, CHO cells expressing human CB2; format: cell-based; conditions: read-out: Human CB2 EC50
Method in brief: (§1)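 CHO cells with human CB1 or CB2 were switched to Krebs Ringer bicarbonate buffer with 1 mM IBMX for 30 min at 30 °C, then given compound for 30 min at 30 °C. cAMP was measured by time-resolved FRET against a cAMP standard curve, and EC50 values were calculated.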

human CB1 receptors = human CB1 receptors (Homo sapiens (Human), UniProt P21554); assay: functional cAMP assay, CHO cells expressing human CB1; format: cell-based; conditions: functional cAMP assay, CHO cells expressing human CB1; read-out: Human CB1 EC50
Method in brief: as §1

Chain of human CB1 receptors (P21554 whole entry): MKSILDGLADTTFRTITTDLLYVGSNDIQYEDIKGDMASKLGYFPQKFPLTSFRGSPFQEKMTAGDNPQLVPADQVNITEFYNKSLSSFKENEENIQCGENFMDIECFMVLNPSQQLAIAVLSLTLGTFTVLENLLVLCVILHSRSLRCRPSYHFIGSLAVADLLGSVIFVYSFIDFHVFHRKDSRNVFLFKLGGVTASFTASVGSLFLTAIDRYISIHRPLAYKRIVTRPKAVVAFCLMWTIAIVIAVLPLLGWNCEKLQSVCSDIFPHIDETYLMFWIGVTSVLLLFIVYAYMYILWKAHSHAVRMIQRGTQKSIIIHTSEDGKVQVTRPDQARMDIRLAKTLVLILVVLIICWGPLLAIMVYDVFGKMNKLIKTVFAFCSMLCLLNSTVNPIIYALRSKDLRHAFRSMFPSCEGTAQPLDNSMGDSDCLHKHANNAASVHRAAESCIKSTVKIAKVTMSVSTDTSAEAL
Chain of human CB2 receptors (P34972 whole entry): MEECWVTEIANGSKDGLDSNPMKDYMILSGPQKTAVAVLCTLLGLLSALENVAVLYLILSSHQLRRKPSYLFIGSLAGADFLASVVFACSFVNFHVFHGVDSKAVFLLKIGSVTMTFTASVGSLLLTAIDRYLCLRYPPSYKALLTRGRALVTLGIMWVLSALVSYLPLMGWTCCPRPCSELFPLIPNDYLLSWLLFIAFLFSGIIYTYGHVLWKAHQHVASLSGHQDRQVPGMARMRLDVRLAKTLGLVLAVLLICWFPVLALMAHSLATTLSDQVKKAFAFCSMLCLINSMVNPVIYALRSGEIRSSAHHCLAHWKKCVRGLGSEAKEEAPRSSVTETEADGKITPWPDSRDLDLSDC

Structure (SMILES) | pEC50 (human CB2 receptors) | pEC50 (human CB1 receptors)
CC(CF)Oc1cc(C(=O)NC(C)(CC(N)=O)C2CC2)ncc1C1CC1 (stereo not drawn) [Example 293, N-(4-amino-2-cyclopropyl-4-oxobutan-2-yl)-5-cyclopropyl-4-(1-fluoropropan-2-yloxy)picolinamide] | 8.89 | < 5.00
CC(CF)Oc1cc(C(=O)NC(C)(CC(N)=O)C2CC2)ncc1C1CC1 (stereo not drawn) [Example 294, N-(4-amino-2-cyclopropyl-4-oxobutan-2-yl)-5-cyclopropyl-4-(1-fluoropropan-2-yloxy)picolinamide] | 9.22 | < 5.00
NC(=O)CC1(NC(=O)c2cc(OCC(F)(F)F)c(C3CCC3)cn2)CS(=O)(=O)C1 [Example 299, N-[3-(2-amino-2-oxoethyl)-1,1-dioxothietan-3-yl]-5-cyclobutyl-4-(2,2,2-trifluoroethoxy)pyridine-2-carboxamide] | 8.70 | < 5.00
CC(CC(N)=O)(NC(=O)c1cc(OCC(F)(F)F)c(C2(F)CCC2)cn1)C1CC1 (stereo not drawn) [Example 300, N-(4-amino-2-cyclopropyl-4-oxobutan-2-yl)-5-(1-fluorocyclobutyl)-4-(2,2,2-trifluoroethoxy)picolinamide] | 8.17 | < 5.00
C[C@H](Oc1cc(C(=O)NC2(CC(N)=O)CS(=O)(=O)C2)ncc1C1(F)CCC1)C(F)(F)F [Example 305, N-[3-(2-amino-2-oxoethyl)-1,1-dioxothietan-3-yl]-5-(1-fluorocyclobutyl)-4-[(2S)-1,1,1-trifluoropropan-2-yl]oxypyridine-2-carboxamide] | 8.29 | < 5.00
NC(=O)CC1(NC(=O)c2cc(OCC(F)F)c(C3(F)CCC3)cn2)CS(=O)(=O)C1 [Example 308, N-[3-(2-amino-2-oxoethyl)-1,1-dioxothietan-3-yl]-4-(2,2-difluoroethoxy)-5-(1-fluorocyclobutyl)pyridine-2-carboxamide] | 7.14 | < 5.00
